Laboratory results: patent publication US20160367515A1, “Improved delivery of poorly water soluble drugs with aphafetoprotein stabilized with metal ions” (Oy Safemed Ltd., priority 2013, published 2016)

Experiments:
[1] = test system: normal CBA mice splenocytes; experiment: Unspecific toxicity against normal splenocytes, trypan blue staining; conditions: 48 h, standalone
Protocol: Zn-rhAFP was prepared in a molecular ratio Zn:rhAFP=4:1. Viable cells were visualized by trypan blue staining. The data are expressed as percentage of viable cells in experimental cell cultures relative to untreated control. Mean of three independent experiments is shown.
Viable cells were visualized by trypan blue staining.

rat glioma C6 = experiment: MTS cell viability assay, rat glioma C6 cells; type: cell-based; conditions: C6, 48 h, compositions of paclitaxel with rhAFP or Zn-rhAFP
Protocol: (§1) Tumor cell lines: human mammary carcinoma MCF-7, human hepatoma HepG2, and rat glioma C6—were originated from the American Type Culture Collection (ATCC). All cell lines were maintained in the complete DMEM or RPMI-1640 media supplemented with L-glutamine and 10% fetal calf serum (FCS) in humidified 5% CO2 atmosphere. For a passage, adherent cells were incubated in the EDTA/0.25% trypsin solution, then washed and plated out for experiments. Prior to addition of reagents, cells were washed with the fresh media with 2% FCS, plated onto 96-well polystyrene plates (Costar, USA) at a density of 3×10^3 cell/well in 180 μL of complete medium with 2% FCS and incubated for 2 h. […] Cell proliferation was assessed by [^3H]-thymidine (^3H-TdR) incorporation assay. […] Cells were harvested and the ^3H-TdR incorporation was measured by using the liquid scintillation counter LKB 1209 Rackbeta (LKB, Sweden). Results were expressed as mean counts per minute (cpm)±standard error of the mean of triplicate cultures or as a percentage of ^3H-TdR incorporation in the experimental cell cultures relatively to the untreated control, as described (Semenkova et al., Tumour Biol. 1997; 18: 261-74).
(§2) Cell viability was assessed by the Promega CellTiter 96 AQueous Non-Radioactive Cell Proliferation MTS assay (Promega, USA) according to manufacturer's instructions. […]

[2] = test system: mammary carcinoma cell line MCF-7; experiment: MTS cell viability assay, mammary carcinoma MCF-7 cells; type: cell-based, human
Protocol: Effect of binding of Zn ions to rhAFP and sugar-free rhAFPo species was tested by measuring of their dose-dependent tumor-suppressive effect for mammary carcinoma cell line MCF-7 in vitro, as it was earlier described for natural embryonic eAFP (Dudich et al., Eur. J. Biochem. 1999; 266: 750-761). MCF-7 cells were incubated with various doses of rhAFP (rhAFPo), Zn-rhAFP (Zn-rhAFPo) or with natural embryonic eAFP for 48 h, and thereafter their viability was assessed by the colorimetric MTS assay (FIG. 1A).
Cell viability was assessed by the Promega CellTiter 96 AQueous Non-Radioactive Cell Proliferation MTS assay (Promega, USA) according to manufacturer's instructions. Cells were incubated with various AFP samples for 48 h as described above, followed by incubation with MTS-test reagents and measuring of the light adsorption of the formasan, appeared in the lysed cell supernatants at 492 nm by using VICTOR-1420 multilabel counter (Wallac, Finland). Intact cell cultures incubated without additions were taken as a control. By such a way the quantity of viable cells capable to internalize MTS dye was determined. Results were expressed as the mean optical density (OD)±the standard error of the mean triplicate cultures. The extent of cell viability was calculated as an average OD in experimental wells after addition of testing compounds in relation to untreated control wells, that was taken as 100%
To evaluate the efficacy of preparations rhAFP/Ptx and Zn-rhAFP/Ptx we compared the cytotoxic effect of Ptx alone or that in combination with rhAFP or Zn-rhAFP for taxol-resistant human hepatoma HepG2 cells, human breast carcinoma cells MCF-7, and rat glioma C6 cell lines in vitro. RhAFP or Zn-rhAFP were incubated with various doses of Ptx at 37° C. for 1 h to allow complex formation with molecular ratios rhAFP:Ptx 1:1; 1:3 or 1:5 and thereafter the mixtures were introduced into the cell culture for 48 hrs. Cytotoxicity was measured by MTS assay.
Various doses of rhAFP/Ptx complexes were tested for their effectiveness for inhibition of human mammary carcinoma MCF-7, human hepatoma HepG2, and rat glioma C6 tumor cell growth in vitro. First, we optimized drug concentration and rhAFP amount to the extent that it would not generate an extensive cytotoxic effect alone. Then, the cells were seeded in 96-well plates at a density of 3×10^3/well in 100 μl of medium for 24 hrs to allow adherence. The next day, rhAFP or Zn-rhAFP combined with Ptx at the molecular ratios of 1:1; 1:3 or 1:5 were added into the each well. After 48 h of incubation MTS assays were performed to determine survival rate of the cells. All the experiments were repeated at least three times. The results were expressed as mean±standard error (SE).
The coefficient of drug interaction (CDI) was calculated to analyze the effects of rhAFP and Ptx combinations. CDI was calculated by the equation: CDI=SRAFP/drug[…]/SRAFP×SRdrug, where SRAFP/drug is the average survival rate of combination group, and SRAFP or SRdrug are the average survival rates of the single agent groups. According to our evaluation, CDI values <1, =1 or >1 indicate that the combinations are synergistic, additive or antagonistic respectively.
The values of Zn-rhAFP/Ptx or rhAFP/Ptx complex concentration, which inhibited the cell viability by 50% (IC50) when compared to untreated control, were calculated according to the Hill's equation (sigmoid model of concentration-response curve) from the curves of dependence of the relative percentage of viable cells from AFP concentration expressed as mean values from three independent experiments±SD.
In order to confirm the hypothesis that the combination of Zn-rhAFP and various low water-soluble chemotherapeutic agents would reveal increased anti-tumor efficacy, different cytotoxic compounds were tested in combination with Zn-rhAFP for their cell-killing effect in MCF-7 cells in vitro. […]

[3] = test system: human hepatoma HepG2 cells; experiment: MTS cell viability assay, hepatoma HepG2 cells; type: cell-based; conditions: HepG2, 48 h
Protocol: as §1, §2

IC50 (rat glioma C6): 2500 nM
IC50 ([2]; Homo sapiens, MCF7, MCF-7, 48 h, compositions of paclitaxel with rhAFP or Zn-rhAFP, mean of three experiments, read-out: IC50): > 10000 nM
Compound: CC(=O)O[C@H]1C(=O)[C@@]2(C)[C@H]([C@H](OC(=O)c3ccccc3)[C@]3(O)C[C@H](OC(=O)[C@H](O)[C@@H](NC(=O)c4ccccc4)c4ccccc4)C(C)=C1C3(C)C)[C@]1(OC(C)=O)CO[C@@H]1C[C@@H]2O [Ptx, paclitaxel]
cytotoxic effect against normal splenocytes [1]: strong dose-dependent growth suppression
Coefficient for drug interaction (CDI) ([2]; MCF7 + Zn-rhAFP 1.4 μM (Zn:rhAFP 4:1) + drug, 48 h): 0.80
sensitivity of HepG2 cells (chemoresistance) [3]: complete resistance
